{"source": "PubChem BioAssay (NCI)", "assay_in_all_cases": "NCI tumour cell line growth inhibition, 384-well format", "key": {"NCI-H460 NSCLC": {"tested_on": "NCI-H460 NSCLC"}, "SF-268 CNS": {"tested_on": "SF-268 CNS"}, "MALME-3M melanoma": {"tested_on": "MALME-3M melanoma"}, "A549 NSCLC": {"tested_on": "A549 NSCLC"}, "KM12 colon": {"tested_on": "KM12 colon"}, "HS 578T breast": {"tested_on": "HS 578T breast"}, "RXF 393 renal": {"tested_on": "RXF 393 renal"}, "CCRF-CEM leukemia": {"tested_on": "CCRF-CEM leukemia"}, "HOP-62 NSCLC": {"tested_on": "HOP-62 NSCLC"}, "786-0 renal": {"tested_on": "786-0 renal"}, "CAKI-1 renal": {"tested_on": "CAKI-1 renal"}, "UACC-62 melanoma": {"tested_on": "UACC-62 melanoma"}, "SF-539 CNS": {"tested_on": "SF-539 CNS"}}, "note": "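Here, GI50 denotes the concentration required for 50% inhibition of growth. TGI marks complete inhibition of growth.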"}
{"molecule": "O=C(Nc1cccc(NS(=O)(=O)c2ccc(F)cc2)c1)c1ccc(-c2ccccc2)cc1", "values": [{"measurement": "GI50", "setting": "NCI-H460 NSCLC", "value": 3.23, "unit": "µM"}, {"measurement": "TGI", "setting": "NCI-H460 NSCLC", "value": 10.4, "unit": "µM"}, {"measurement": "GI50", "setting": "SF-268 CNS", "value": 3.93, "unit": "µM"}, {"measurement": "TGI", "setting": "SF-268 CNS", "value": 17.2, "unit": "µM"}, {"measurement": "GI50", "setting": "MALME-3M melanoma", "value": 4.23, "unit": "µM"}, {"measurement": "TGI", "setting": "MALME-3M melanoma", "value": 17.4, "unit": "µM"}, {"measurement": "GI50", "setting": "A549 NSCLC", "value": 4.07, "unit": "µM"}, {"measurement": "TGI", "setting": "A549 NSCLC", "value": "> 100", "unit": "µM"}, {"measurement": "GI50", "setting": "KM12 colon", "value": 3.62, "unit": "µM"}, {"measurement": "TGI", "setting": "KM12 colon", "value": 13.2, "unit": "µM"}, {"measurement": "GI50", "setting": "HS 578T breast", "value": 3.7, "unit": "µM"}, {"measurement": "TGI", "setting": "HS 578T breast", "value": 15.3, "unit": "µM"}, {"measurement": "GI50", "setting": "RXF 393 renal", "value": 2.02, "unit": "µM"}, {"measurement": "TGI", "setting": "RXF 393 renal", "value": 4.91, "unit": "µM"}, {"measurement": "GI50", "setting": "CCRF-CEM leukemia", "value": 2.33, "unit": "µM"}, {"measurement": "TGI", "setting": "CCRF-CEM leukemia", "value": 5.8, "unit": "µM"}, {"measurement": "GI50", "setting": "HOP-62 NSCLC", "value": 3.85, "unit": "µM"}, {"measurement": "TGI", "setting": "HOP-62 NSCLC", "value": 11.6, "unit": "µM"}, {"measurement": "GI50", "setting": "786-0 renal", "value": 2.95, "unit": "µM"}, {"measurement": "TGI", "setting": "786-0 renal", "value": 10.6, "unit": "µM"}, {"measurement": "GI50", "setting": "CAKI-1 renal", "value": 5.85, "unit": "µM"}, {"measurement": "TGI", "setting": "CAKI-1 renal", "value": 26.6, "unit": "µM"}, {"measurement": "GI50", "setting": "UACC-62 melanoma", "value": 3.38, "unit": "µM"}, {"measurement": "TGI", "setting": "UACC-62 melanoma", "value": 15, "unit": "µM"}, {"measurement": "GI50", "setting": "SF-539 CNS", "value": 3.17, "unit": "µM"}, {"measurement": "TGI", "setting": "SF-539 CNS", "value": 11.1, "unit": "µM"}]}
